Experimental data reported in patent publication US5516795A, “Heteroatom substituted propanyl derivatives having 5-lipoxygenase inhibitory activity” (Abbott Laboratories, priority 1994, dated 1996).
Blank lines part the entries; values can stand above or below the compound they belong to.

Molecular target: T1, 5-Lipoxygenase (Homo sapiens, UniProt P09917)
T1 construct: Human heparinized whole blood was preincubated with test compounds; endogenous in cells; host or cells: human heparinized whole blood (endogenous enzyme of the blood cells)
T1 sequence (P09917 1-674): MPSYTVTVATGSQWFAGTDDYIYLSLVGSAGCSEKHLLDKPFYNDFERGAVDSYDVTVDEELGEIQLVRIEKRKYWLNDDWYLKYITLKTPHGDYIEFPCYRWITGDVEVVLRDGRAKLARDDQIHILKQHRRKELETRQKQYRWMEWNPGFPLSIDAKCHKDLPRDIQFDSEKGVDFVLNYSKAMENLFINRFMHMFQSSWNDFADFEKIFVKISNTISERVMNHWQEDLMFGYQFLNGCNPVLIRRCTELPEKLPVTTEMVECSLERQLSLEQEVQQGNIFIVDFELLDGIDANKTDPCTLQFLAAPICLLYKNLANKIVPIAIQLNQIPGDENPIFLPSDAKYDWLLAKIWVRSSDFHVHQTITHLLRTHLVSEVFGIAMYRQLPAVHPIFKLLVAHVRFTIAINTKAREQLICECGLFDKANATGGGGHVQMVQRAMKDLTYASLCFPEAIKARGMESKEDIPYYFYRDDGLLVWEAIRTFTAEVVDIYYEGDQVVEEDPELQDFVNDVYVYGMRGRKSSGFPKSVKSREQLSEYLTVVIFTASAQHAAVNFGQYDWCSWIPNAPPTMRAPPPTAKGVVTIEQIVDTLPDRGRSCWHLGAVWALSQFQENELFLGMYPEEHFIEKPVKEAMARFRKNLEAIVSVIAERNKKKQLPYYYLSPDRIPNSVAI
Test: Inhibition of calcium ionophore A23187-induced LTB4 biosynthesis in human whole blood (5-lipoxygenase inhibition)
Assay type: cell-based
Conditions: A23187 8.3 μM; for inhibition at 0.1 µM: @ 0.10 μM
Experimental: Lipoxygenase Inhibition Determination
Inhibition of leukotriene biosynthesis was evaluated in an assay, involving calcium ionophore-induced LTB4 biosynthesis expressed human whole blood. Human heparinized whole blood was preincubated with test compounds or vehicle for 15 min at 37° C. followed by calcium ionophore A23187 challenge (final concentration of 8.3 μM) and the reaction terminated after 30 min by adding two volumes of methanol containing prostaglandin B2 as an internal recovery standard. The methanol extract was analyzed for LTB4 using a commercially available radioimmunoassay.
In Vitro Inhibitory Potencies of Compounds
of this Invention Against 5-Lipoxygenase from
Stimulated LTB4 Formation in Human Whole Blood

[1] = human whole blood, read-out: In vitro inhibition of 5-lipoxygenase / stimulated LTB4 formation (% printed under head "IC50 (10^-6 M)")

- inhibition at 6.25 µM [1]: 100%
Structure (SMILES): CO/N=C(/c1cccc(Sc2ccc(N(C)C(=O)N(C)C)cc2)c1)[C@H]1COC(C)(C)O1 [Example 4, Z-(4S)-O-methyl-2,2-dimethyl-4-[(3-(4-(N',N'-dimethylaminocarbonyl-N-methylamino)phenylthioxyl)phenyl)oximinomethyl]-1,3-dioxolane]

- IC50 (stimulated LTB4 formation in human whole blood, read-out: IC50 (10^-6 M)): 50 nM
Structure (SMILES): C=CCN(C)c1ccc(Sc2cccc(/C(=N\OC)[C@H]3COC(C)(C)O3)c2)cc1 [Example 3 (E oxime), E-(4S)-O-methyl-2,2-dimethyl-4-[(3-(4-(N-allyl-N-methylamino)phenylthioxyl)phenyl)oximinomethyl]-1,3dioxolane]

- inhibition at 0.2 µM (@ 0.20 μM, human whole blood, read-out: In vitro inhibition of 5-lipoxygenase / stimulated LTB4 formation (% printed under head "IC50 (10^-6 M)")): 82%
Structure (SMILES): CO/N=C(\c1cc(F)cc(OCc2ccc(N(C)C(C)=O)cc2)c1)[C@H]1COC(C)(C)O1 [Example 2, E-(4S)-O-methyl-2,2-dimethyl-4-[(5-fluoro-3-(4-(N-acetyl-N-methylamino)benzyloxy)phenyl)oximinomethyl]-1,3-dioxolane]

- inhibition at 6.25 µM [1]: 99%
Structure (SMILES): C=CCN(C)c1ccc(Sc2cccc(/C(=N/OC)[C@H]3COC(C)(C)O3)c2)cc1 [Example 3 (Z oxime), Z-(4S)-O-Methyl-2,2-dimethyl-4-[(3-(4-(N-allyl-N-methylamino)phenylthioxyl)phenyl)oximinomethyl]-1,3-dioxolane]

- inhibition at 0.1 µM [1]: 100%
Structure (SMILES): CO/N=C(\c1cc(F)cc(OCc2ccc(N(C)C(=O)N(C)C)cc2)c1)[C@H]1COC(C)(C)O1 [Example 1, E-(4S)-O-methyl-2,2-dimethyl-4-[(5-fluoro-3-(4-(N',N'-dimethylaminocarbonyl-N-methylamino)benzyloxy)phenyl)oximinomethyl]-1,3-dioxolane]

- inhibition at 0.78 µM (@ 0.78 μM, human whole blood, read-out: In vitro inhibition of 5-lipoxygenase / stimulated LTB4 formation (% printed under head "IC50 (10^-6 M)")): 100%
Structure (SMILES): CO/N=C(\c1cccc(Sc2ccc(N(C)C(=O)N(C)C)cc2)c1)[C@H]1COC(C)(C)O1 [Example 5, E-(4S)-O-methyl-2,2-dimethyl-4-[(3-(4-(N',N': dimethylaminocarbonyl-N-methylamino)phenylthioxyl)phenyl)oximinomethyl]-1,3: dioxolane]

- inhibition at 0.1 µM [1]: 49%
Structure (SMILES): COC[C@@H](OC)[C@@H](OC)c1cc(F)cc(OCc2ccc(N(C)C(=O)N(C)C)cc2)c1 [Example 14, anti-(1S, 2R)-1-[(5-fluoro-3-(4-(N', N'-dimethylaminocarbonyl-N-methylamino)benzyloxy)phenyl)]-1,2,3-trimethoxypropane]
